Source: ChEMBL document CHEMBL1151994, “Plant seeds as sources of potential industrial chemicals, pharmaceuticals, and pest control agents” (2009)
Values after ≈ are worked out from the molar mass of the structure shown.

Assays:
Format in all cases: functional
P388 [1] = test: In vivo antitumor activity against mouse P388 cells at 0.25 to 1 mg/kg relative to control; settings: dose mg/kg 0.25-1
L1210 = test: In vivo antitumor activity against mouse L1210 cells at 0.25 to 1 mg/kg relative to control; settings: dose mg/kg 0.25-1
Ostrinia nubilalis = test: Insecticidal activity against Ostrinia nubilalis; settings: read-out: LD50 (the source's name)
P388 [2] = test: In vivo antitumor activity against mouse P388 cells at 1 to 3.3 mg/kg relative to control; settings: dose mg/kg 1-3.3
KB = test: Cytotoxicity against human KB cells; settings: for EC50: Homo sapiens, KB, read-out: ED50 (the source's name)
PS [3] = test: In vivo antitumor activity against […] PS cells at 8 to 23 ug/kg relative to control
PS [4] = test: In vivo antitumor activity against […] PS cells at 1 to 31 ug/kg relative to control
[5] = In vivo antitumor activity against human B1 cells at 4 to 32 ug/kg relative to control

For `COC(=O)C[C@](O)(CCCC(C)(C)O)C(=O)O[C@@H]1C(OC)=C[C@]23CCCN2CCc2cc4c(cc2[C@H]13)OCO4` [OMACETAXINE MEPESUCCINATE], the T/C (P388 [1]) was 244% and the T/C (L1210) was 123%.

`CO[C@H]1[C@H](O)[C@H](O[C@H]2CC[C@@]3(C)[C@H](CC[C@@H]4[C@@H]3CC[C@]3(C)[C@@H](C5=CC(=O)OC5)CC[C@]43O)C2)O[C@@H](C)[C@@H]1O` [NERIIFOLIN] gave an LC50 (Ostrinia nubilalis) of 30 µg/mL (≈ 56.1 µM).

Work on `C/C=C(\C)C(=O)N[C@@H](c1ccccc1)[C@@H](O)C(=O)O[C@H]1C[C@@]2(O)[C@@H](OC(=O)c3ccccc3)[C@@H]3[C@]4(OC(C)=O)CO[C@@H]4C[C@H](O)[C@@]3(C)C(=O)[C@H](OC(C)=O)C(=C1C)C2(C)C` [CEPHALOMANNINE] yielded a T/C (P388 [2]) of 158% and an EC50 (KB) of 3.8 ng/mL (≈ 0.00457 µM).

In the case of `C=C1CO[C@](O)(C2OCOC(C3CC(=O)NC(=O)C3)[C@@H]2O)[C@H]1C` (stereo partly specified) [SESBANIMIDE A], the T/C (PS [3]) is reported as 140% and the EC50 (KB) is reported as 7.7 ng/mL (≈ 0.0235 µM).

`CO[C@@H]1[C@@H](O)[C@H](C)O[C@@H](O[C@H]2CC[C@@]3(C)[C@H](CC[C@@H]4[C@@H]3CC[C@]3(C)[C@@H](C5=CC(=O)OC5)CC[C@]43O)C2)[C@H]1OC(C)=O` gave an LC50 (Ostrinia nubilalis) of 192 µg/mL (≈ 333 µM).

`COc1cc2cc(c1Cl)N(C)C(=O)C[C@H](OC(=O)[C@H](C)N(C)C(=O)C(C)C)[C@]1(C)O[C@H]1[C@H](C)[C@@H]1C[C@@](O)(NC(=O)O1)[C@H](OC)/C=C/C=C(\C)C2OC` (stereo partly specified) [TREWIASINE] showed an ED50 (KB) of 2 ×10⁻⁴ ug/ml, a T/C (PS [4]) of 126% and a T/C [5] of 165%.
